These compounds were tested on HT-29 cells (colon cancer cells) (assay: In vitro assay for protection of HT-29 cells from necroptosis (TNFα/Smac mimetic/Z-VAD-FMK, CCK-8)). Settings: Homo sapiens, Protective Activity Against Necroptosis, TNFα/Smac mimetic/Z-VAD-FMK induced, 24 h.
Assay type: cell-based
Source text: Z′=1−3(SDmin+SDmax)/(AVEmax−AVEmin) • wherein: • Min is the positive control Data, and Max is the negative control DMSO Data. • SD is the standard deviation, and AVE is the average. In Vitro Assay for Protection of HT-29 Cells from Necroptosis:
1) Experimental Materials
DMEM medium was purchased from Gibco; penicillin-streptomycin was purchased from Hyclone; TNFα was purchased from Peprotech; Smac mimetic and Z-VAD-FMK were purchased from Selleck; and CCK-8 was purchased from Medchem Express.
HT-29 cells (colon cancer cells) were cultured in DMEM+10% FBS+penicillin/streptomycin. For the experiment, HT-29 cells in the logarithmic phase were collected and seeded into 96-well plates at a specific density (typically 8×10^3 cells/well for adherent cells). The cells were cultured overnight in an incubator at 37° C. with 5% CO2. On the following day, the test compound was diluted with culture medium to the corresponding concentrations and added into the 96-well plate, with 3 replicate wells for each sample. A solvent control group and a blank control group containing only culture medium were set simultaneously. The spiked cells were induced with a combination of TNFα/Smac mimetic/Z-VAD-FMK for 24 h. Subsequently, 10 μL of CCK8 solution was added to each well, and the cells were incubated in an incubator for 1-3 h. Absorbance was measured at […] using a microplate reader, and the cell necrosis protection rate of the drug was calculated using the following formula:
Cell necrosis protection rate=[(X−C0)/(C−C0)]×100% • where C, C0, and X represent the average absorbance values of the solvent control group, the blank control group, and the drug treatment group, respectively. Finally, a cell viability curve was fitted using Graphpad Prism 5.0 software, and the EC50 value of the test compound for inhibiting necroptosis was calculated.

Structure (SMILES)	EC50 [nM]
C[C@H](NC(=O)c1cn(C)c2ccc(-c3ccn4nc(NC(=O)CN5CCC(O)CC5)nc4c3)cc12)c1ccc(F)cc1 [Compound 6]	< 1
Cn1cc(C(=O)N[C@@H](CF)c2ccc(F)cc2)c2cc(-c3ccn4nc(NC(=O)C5CCOC5)nc4c3)ccc21 (stereo partly drawn) [Compound 109]	1 to 10
CO[C@@H](C)C(=O)Nc1nc2cc(-c3ccc4c(c3)c(C(=O)N[C@@H](CF)c3ccc(F)cc3)cn4C)ccn2n1 [Compound 98]	< 1
C[C@H](NC(=O)c1cn(C)c2ccc(-c3ccn4nc(NC(=O)CNC5CCOC5)nc4c3)cc12)c1ccc(F)cc1 (stereo partly drawn) [Compound 77]	< 1
Cn1cc(C(=O)N[C@H]2CCc3cc(C#N)ccc32)c2cc(-c3ccn4nc(NC(=O)C5CC5)nc4c3)ccc21 [Compound 130]	1 to 10
Cn1cc(C(=O)N[C@@H](CF)c2ccc(F)cc2)c2cc(-c3ccn4nc(NCC5CC5)nc4c3)ccc21 [Compound 108]	< 1
CCNCC(=O)Nc1nc2cc(-c3ccc4c(c3)c(C(=O)N[C@@H](C)c3ccc(F)cc3)cn4C)ccn2n1 [Compound 76]	< 1
C[C@H](NC(=O)c1cn(C)c2ccc(-c3ccn4nc(NC(=O)CN5CC(C#N)C5)nc4c3)cc12)c1ccc(F)cc1 [Compound 34]	< 1
C[C@H](NC(=O)c1cn(C)c2ccc(-c3ccn4nc(NC(=O)CN5CC[C@H](O)C5)nc4c3)cc12)c1ccc(F)cc1 [Compound 41]	< 1
C[C@H](NC(=O)c1cn(C)c2ccc(-c3ccn4nc(NC(=O)CN5CCOCC5=O)nc4c3)cc12)c1ccc(F)cc1 [Compound 16]	10 to 100
Cn1cc(C(=O)N[C@H]2CCCc3ccc(F)cc32)c2cc(-c3ccn4nc(NC(=O)[C@H]5CCCO5)nc4c3)ccc21 [Compound 146]	10 to 100
C[C@H](NC(=O)c1cn(C)c2ccc(-c3ccn4nc(NC(=O)CN5CC(F)(F)C5)nc4c3)cc12)c1ccc(F)cc1 [Compound 42]	< 1
COC(C)C(=O)Nc1nc2cc(-c3ccc4c(c3)c(-c3nncn3C(C)c3ccc(F)cc3)cn4C)ccn2n1 (stereo not drawn) [Compound 216]	10 to 100
Cn1cc(C(=O)Nc2nc3cc(-c4ccc5c(c4)c(C(=O)N[C@H]4CCCc6ccc(F)cc64)cn5C)ccn3n2)cn1 [Compound 143]	1 to 10
C[C@H](NC(=O)c1cn(C)c2ccc(-c3ccn4nc(NC(=O)CN5CCC(F)(F)CC5)nc4c3)cc12)c1ccc(F)cc1 [Compound 47]	< 1
C[C@H](NC(=O)c1cn(C)c2ccc(-c3ccn4nc(NC(=O)CN5CCSCC5)nc4c3)cc12)c1ccc(F)cc1 [Compound 43]	< 1
C[C@H](NC(=O)c1cn(C)c2ccc(-c3ccn4nc(NC(=O)CN5CCC(C#N)CC5)nc4c3)cc12)c1ccc(F)cc1 [Compound 23]	< 1
C[C@H](NC(=O)c1cn(C)c2ccc(-c3ccn4nc(NC(=O)CN5CCOCC5)nc4c3)cc12)c1ccc(Cl)cc1 [Compound 83]	< 1
CCN(CC)CC(=O)Nc1nc2cc(-c3ccc4c(c3)c(C(=O)N[C@@H](C)c3ccc(F)cc3)cn4C)ccn2n1 [Compound 36]	< 1

Structure (SMILES)	EC50 [nM]
Cn1nc(C(=O)N[C@@H](CF)c2ccc(F)cc2)c2cc(-c3ccn4nc(NC(=O)C5CCOC5)nc4c3)ccc21 (stereo partly drawn) [Compound 188]	< 1
Cn1cc(C(=O)N2CC(F)(F)CC2c2ccc(F)cc2)c2cc(-c3ccn4nc(NC(=O)C5CC5)nc4c3)ccc21 (stereo not drawn) [Compound 158]	1000 to 10000
Cn1cc(C(=O)N[C@@H](CF)c2ccc(F)cc2)c2cc(-c3ccn4nc(NC(=O)C5(C)CCC5)nc4c3)ccc21 [Compound 105]	10 to 100
C[C@H](NC(=O)c1cn(C)c2ccc(-c3ccn4nc(NC(=O)CN5CC[C@H](CO)C5)nc4c3)cc12)c1ccc(F)cc1 [Compound 61]	1 to 10
C[C@H](NC(=O)c1cn(C)c2ccc(-c3ccn4nc(NC(=O)Cn5ccnn5)nc4c3)cc12)c1ccc(F)cc1 [Compound 52]	< 1
C[C@@H]1CN(CC(=O)Nc2nc3cc(-c4ccc5c(c4)c(C(=O)N[C@@H](C)c4ccc(Cl)cc4)cn5C)ccn3n2)C[C@H](C)O1 [Compound 85]	< 1
CC(C)Nc1nc2cc(-c3ccc4c(c3)c(C(=O)N[C@@H](CF)c3ccc(F)cc3)cn4C)ccn2n1 [Compound 99]	< 1
C[C@H](NC(=O)c1cn(C)c2ccc(-c3ccn4nc(NC(=O)CN5CC(F)(F)C5)nc4c3)cc12)c1ccc(Cl)cc1 [Compound 80]	< 1
C[C@H](NC(=O)c1cn(C)c2ccc(-c3ccn4nc(NC(=O)CN5CCOCC5)nc4c3)cc12)c1ccc(F)cc1 [Compound 75]	< 1
Cn1cc(C(=O)N[C@@H](CF)c2ccc(F)cc2)c2cc(-c3ccn4nc(NC(=O)CN5CCCCC5)nc4c3)ccc21 [Compound 96]	< 1
C[C@H](NC(=O)c1cn(C)c2ccc(-c3ccn4nc(NC(=O)CN5CCOC[C@@H]5CO)nc4c3)cc12)c1ccc(F)cc1 [Compound 35]	< 1
Cn1cc(C(=O)Nc2nc3cc(-c4ccc5c(c4)c(C(=O)N[C@@H](CF)c4cccc(F)c4)cn5C)ccn3n2)cn1 [Compound 155]	< 1
C[C@H](NC(=O)c1cn(C)c2ccc(-c3ccn4nc(NC5CCOC5)nc4c3)cc12)c1ccc(F)cc1 (stereo partly drawn) [Compound 107]	< 1
C[C@H](NC(=O)c1cn(C)c2ccc(-c3ccn4nc(NC(=O)CN5CCN(CCO)CC5)nc4c3)cc12)c1ccc(F)cc1 [Compound 70]	< 1
Cn1cc(C(=O)N[C@@H](CF)c2ccc(F)cc2)c2cc(-c3ccn4nc(NC(=O)[C@H]5CCCO5)nc4c3)ccc21 [Compound 104]	1000 to 10000
COCCNCC(=O)Nc1nc2cc(-c3ccc4c(c3)c(C(=O)N[C@@H](C)c3ccc(F)cc3)cn4C)ccn2n1 [Compound 68]	< 1
Cn1cc(C(=O)N[C@@H](CF)c2ccc(F)cc2)c2cc(-c3ccn4nc(NC(=O)C5CC5)nc4c3)ccc21 [Compound 114]	< 1
C[C@H](NC(=O)c1cn(C)c2ccc(-c3ccn4nc(NC(=O)CN5CCOC(C)(C)C5)nc4c3)cc12)c1ccc(F)cc1 [Compound 18]	< 1
C[C@H](NC(=O)c1cn(C)c2ccc(-c3ccn4nc(NC(=O)N5CCOCC5)nc4c3)cc12)c1ccc(F)cc1 [Compound 116]	< 1

Structure (SMILES)	EC50 [nM]
C[C@H](NC(=O)c1cn(C)c2ccc(-c3ccn4nc(NC(=O)CN5CCC(F)(F)CC5)nc4c3)cc12)c1ccc(Cl)cc1 [Compound 86]	< 1
Cn1cc(C(=O)N[C@H](c2ccc(F)cc2)C(F)F)c2cc(-c3ccn4nc(NC(=O)CC#N)nc4c3)ccc21 [Compound 164]	< 1
Cn1cc(C(=O)N2CC(F)(F)CC2c2ccc(F)cc2)c2cc(-c3ccn4nc(NC(=O)N5CCOCC5)nc4c3)ccc21 (stereo not drawn) [Compound 160]	< 1
COC(C)C(=O)Nc1nc2cc(-c3ccc4c(c3)c(C(=O)N[C@@H](CF)c3ccc(F)cc3)cn4C)ccn2n1 (stereo partly drawn) [Compound 112]	< 1
C[C@H](NC(=O)c1cn(C)c2ccc(-c3ccn4nc(NC(=O)CN5CCCO5)nc4c3)cc12)c1ccc(F)cc1 [Compound 22]	1 to 10
CC(=O)Nc1nc2cc(-c3ccc4c(c3)c(C(=O)N[C@H]3CCc5cc(C#N)ccc53)cn4C)ccn2n1 [Compound 132]	100 to 1000
Cn1nc(C(=O)N[C@@H](CF)c2ccc(F)cc2)c2cc(-c3ccn4nc(NC(=O)N5CCOCC5)nc4c3)ccc21 [Compound 189]	< 1
Cn1cc(C(=O)Nc2nc3cc(-c4ccc5c(c4)c(C(=O)N[C@@H](CF)c4ccc(F)cc4)nn5C)ccn3n2)cn1 [Compound 187]	< 1
CC(C(=O)Nc1nn(C)c2ccc(-c3ccn4nc(NC(=O)CN(C)C)nc4c3)cc12)c1ccc(F)cc1 (stereo not drawn) [Compound 180]	1000 to 10000
C[C@H](NC(=O)c1cn(C)c2ccc(-c3ccn4nc(NC(=O)CN5CCOCC5C(=O)O)nc4c3)cc12)c1ccc(F)cc1 (stereo partly drawn) [Compound 33]	1000 to 10000
Cn1cc(C(=O)N2N=CCC2c2ccc(F)cc2)c2cc(-c3ccn4nc(NC(=O)C5CCOC5)nc4c3)ccc21 (stereo not drawn) [Compound 169]	< 1
COCC(=O)Nc1nc2cc(-c3ccc4c(c3)c(C(=O)N[C@@H](CF)c3ccc(F)cc3)cn4C)ccn2n1 [Compound 97]	< 1
CN1CCC(C(=O)Nc2nc3cc(-c4ccc5c(c4)c(C(=O)N[C@H](c4ccc(F)cc4)C(F)F)cn5C)ccn3n2)C1 (stereo partly drawn) [Compound 168]	< 1
C[C@H](NC(=O)c1cn(C)c2ccc(-c3ccn4nc(NC(=O)CN5CCC6(CC5)OCCO6)nc4c3)cc12)c1ccc(F)cc1 [Compound 27]	< 1
CCOC(=O)C(=O)Nc1nc2cc(-c3ccc4c(c3)c(C(=O)N[C@@H](C)c3ccc(F)cc3)cn4C)ccn2n1 [Compound 10]	1 to 10
C[C@H](NC(=O)c1cn(C)c2ccc(-c3ccn4nc(NC(=O)CN5CCC[C@H]5C(=O)O)nc4c3)cc12)c1ccc(F)cc1 [Compound 37]	1 to 10
C[C@H](NC(=O)c1cn(C)c2ccc(-c3ccn4nc(NC(=O)CN5CCC(N6CCOCC6)CC5)nc4c3)cc12)c1ccc(F)cc1 [Compound 38]	< 1
C[C@H](NC(=O)c1nn(C)c2ccc(-c3ccn4nc(NC(=O)C5CC5)nc4c3)cc12)c1ccc(F)cc1 [Compound 192]	< 1
C[C@H](NC(=O)c1cn(C)c2ccc(-c3ccn4nc(NC(=O)C5(C(=O)O)CC5)nc4c3)cc12)c1ccc(F)cc1 [Compound 31]	10 to 100

Reference: US20260327224A1, “SUBSTITUTED PYRIDOTRIAZOLE COMPOUND, AND PREPARATION METHOD THEREFOR AND USE THEREOF” (ORIGIANT PHARMACEUTICAL CO., LTD., priority 2023, published 2026)
